Molecular target: T1, chicken gizzard smooth muscle myosin subfragment-1 chemically crosslinked to either cardiac or skeletal actin (Gallus gallus, UniProt P10587)
T1 construct: chicken gizzard smooth muscle myosin subfragment-1; from tissue; host or cells: chicken gizzard
Assay: Dose dependent smooth muscle myosin ATPase modulation (pyruvate kinase/horseradish peroxidase/pyruvate oxidase-coupled ATPase assay)
Assay type: biochemical
Details: read-out: IC50 Arithmetic Mean
Experimental: In Vitro Model of Dose Dependent Smooth Muscle Myosin Atpase Modulation
Screening assays were performed using a pyruvate kinase and lactate dehydrogenase-coupled ATPase assay containing the following reagents: Potassium PIPES (50 mM ), MgCl2 (3 mM ), KCl (100 mM ), ATP (0.15 mM ), DTT (1 mM ), BSA (0.1 mg/ml), NADH (0.5 mM ), PEP (1.5 mM ), pyruvate kinase (4 U/ml), lactate dehydrogenase (8 U/ml), and antifoam (50 ppm) (concentrations expressed are final assay concentrations). The pH was adjusted to 6.80 at 22° C. by addition of potassium hydroxide. Lead optimization assays were performed with a more sensitive pyruvate kinase/horseradish peroxidase/pyruvate oxidase-coupled ATPase assay containing the following reagents: Potassium PIPES (12 mM ), MgCl2 (2 mM ), KCl (100 mM ), ATP (0.15 mM ), BSA (0.05 mg/ml), potassium phosphate (2 mM ), amplex red (0.1 mM ), PEP (0.1 mM ), pyruvate kinase (4 U/ml), horseradish peroxidase (0.5 U/ml), pyruvate oxidase (0.5 U/ml), and antifoam (50 ppm) (concentrations expressed are final assay concentrations). The pH was adjusted to 7.00 at 22° C. by addition of potassium hydroxide.
The protein components specific to this assay are chicken gizzard smooth muscle myosin subfragment-1 that has been chemically crosslinked to either cardiac or skeletal actin using an excess of 1-Ethyl-3-[3-dimethylaminopropyl]carbodiimide hydrochloride and N-hydroxysuccinimide. The exact concentration of the crosslinked smooth muscle myosin in the assay is determined empirically, by titration to achieve a desired rate of ATP hydrolysis. The concentration varies between protein preparations due to variations in the fraction of active molecules in each preparation.
Compound dose response assays are performed by first preparing a dilution series of test compound, each with an assay mixture containing potassium PIPES, MgCl2, KCl, ATP, BSA, potassium phosphate, amplex red, PEP, crosslinked smooth muscle actomyosin (subfragment-1), antifoam, and water. The assay is started by adding an equal volume of solution containing potassium Pipes, MgCl2, KCl, BSA, potassium phosphate, pyruvate kinase, horseradish peroxidase, pyruvate oxidase, antifoam, and water. ATP hydrolysis is monitored by measuring the fluorescence of amplex red (excitation at 480 nm, emission at 615 nm). The resulting dose response curve is fit by the 4 parameter equation y=Bottom+((Top−Bottom)/(1+((IC50/X)^Hill))). The IC50 is defined as the concentration at which ATPase activity is midway between the top and bottom of the dose response curve.

Compound | IC50
O=C(NCc1cccnc1)c1ccc(N2CC[C@H](CO)C2)nc1NCCc1cccc(F)c1 [Compound 27, (6-[(3S)-3-(hydroxymethyl)pyrrolidinyl]-2-{[2-(3-fluorophenyl)ethyl]amino}(3-pyridyl))-N-(3-pyridylmethyl)carboxamide] | 465 nM
CNC(=O)CNC(=O)c1ccc(N2CCCC2)nc1NCCc1cccc(F)c1 [Compound 28, 2-[(2-{[2-(3-fluorophenyl)ethyl]amino}-6-pyrrolidinyl(3-pyridyl))carbonylamino]-N-methylacetamide] | 329 nM
O=C(NCc1cccnc1)c1ccc(N2CC=CC2)nc1NCCc1cccc(F)c1 [Compound 29, (2-{[2-(3-fluorophenyl)ethyl]amino}-6-(3-pyrrolinyl)(3-pyridyl))-N-(3-pyridylmethyl)carboxamide] | 154 nM
N[C@H]1CCN(c2ccc(C(=O)NCc3cccnc3)c(NCCc3cccc(F)c3)n2)C1 [Compound 30, (6-((3S)-3-aminopyrrolidinyl)-2-{[2-(3-fluorophenyl)ethyl]amino}(3-pyridyl))-N-(3-pyridylmethyl)carboxamide] | 28400 nM
CN(C)C(=O)N[C@@H]1CCN(c2ccc(C(=O)NCc3cccnc3)c(NCCc3cccc(F)c3)n2)C1 [Compound 31, N-[(3R)-1-(6-{[2-(3-fluorophenyl)ethyl]amino}-5-[N-(3-pyridylmethyl)carbamoyl](2-pyridyl))pyrrolidin-3-yl](dimethylamino)carboxamide] | 67800 nM
O=C(NCc1cccnc1)c1ccc(N2CCC2)nc1NCCc1cccc(F)c1 [Compound 32, (6-azetidinyl-2-{[2-(3-fluorophenyl)ethyl]amino}(3-pyridyl))-N-(3-pyridylmethyl)carboxamide] | 1170 nM
O=C(NCc1cccnc1)c1ccc(N2CCCC2)nc1NCCc1ccccn1 [Compound 33, {2-[(2-(2-pyridyl)ethyl)amino]-6-pyrrolidinyl(3-pyridyl)}-N-(3-pyridylmethyl)carboxamide] | 32800 nM
CC1CCN(c2ccc(C(=O)NCc3cccnc3)c(NCCc3ccccn3)n2)CC1 [Compound 34, {6-(4-methylpiperidyl)-2-[(2-(2-pyridyl)ethyl)amino](3-pyridyl)}-N-(3-pyridylmethyl)carboxamide] | 14300 nM
O=C(NCc1cccnc1)c1ccc(C2=NCCO2)nc1NCCc1cccc(F)c1 [Compound 35, (2-{[2-(3-fluorophenyl)ethyl]amino}-6-(1,3-oxazolin-2-yl)(3-pyridyl))-N-(3-pyridylmethyl)carboxamide] | 1500 nM
NCc1ncccc1CNC(=O)c1ccc(N2CC[C@@H](O)C2)nc1NCCc1cccc(F)c1 [Compound 36, (6-((3R)-3-hydroxypyrrolidinyl)-2-{[2-(3-fluorophenyl)ethyl]amino}(3-pyridyl))-N-{[2-(aminomethyl)(3-pyridyl)]methyl}carboxamide] | 327 nM
NCc1ncccc1CNC(=O)c1ccc(C2=CCCC2)nc1NCCc1cccc(F)c1 [Compound 37, N-{[2-(aminomethyl)(3-pyridyl)]methyl}(6-cyclopent-1-enyl-2-{[2-(3-fluorophenyl)ethyl]amino}(3-pyridyl))carboxamide] | 14.6 nM
NCc1ncccc1CNC(=O)c1ccc(N2CC[C@H](F)C2)nc1NCCc1cccc(F)c1 [Compound 38, (6-((3S)-3-fluoropyrrolidinyl)-2-{[2-(3-fluorophenyl)ethyl]amino}(3-pyridyl))-N-{[2-(aminomethyl)(3-pyridyl)]methyl}carboxamide] | 88.2 nM
NCc1ncccc1CNC(=O)c1ccc(N2CC[C@@H](F)C2)nc1NCCc1cccc(F)c1 [Compound 39, (6-((3R)-3-fluoropyrrolidinyl)-2-{[2-(3-fluorophenyl)ethyl]amino}(3-pyridyl))-N-{[2-(aminomethyl)(3-pyridyl)]methyl}carboxamide] | 31.3 nM
NCc1ncccc1CNC(=O)c1ccc(N2CCCCC2)nc1NCCc1cccc(F)c1 [Compound 40, N-{[2-(aminomethyl)(3-pyridyl)]methyl}(2-{[2-(3-fluorophenyl)ethyl]amino}-6-piperidyl(3-pyridyl))carboxamide] | 65.6 nM
NCc1ncccc1CNC(=O)c1ccc(N2CCCC2)nc1NCCc1cccc(F)c1 [Compound 41, N-{[2-(aminomethyl)(3-pyridyl)]methyl}(2-{[2-(3-fluorophenyl)ethyl]amino}-6-pyrrolidinyl(3-pyridyl))carboxamide] | 29.7 nM
CNC(=O)CNC(=O)c1ccc(C2=CCN(C(=O)OC)CC2)nc1NCCc1cccc(F)c1 [Compound 43, methyl 4-(6-{[2-(3-fluorophenyl)ethyl]amino}-5-{N-[(N-methylcarbamoyl)methyl]carbamoyl}-2-pyridyl)-1,2,5,6-tetrahydropyridinecarboxylate] | 627 nM
COC(=O)N[C@@H]1CCN(c2ccc(C(=O)NCc3cccnc3)c(NCCc3cccc(F)c3)n2)C1 [Compound 44, N-[(3R)-1-(6-{[2-(3-fluorophenyl)ethyl]amino}-5-[N-(3-pyridylmethyl)carbamoyl](2-pyridyl))pyrrolidin-3-yl]methoxycarboxamide] | 4500 nM
O=C(NCc1cccnc1)c1ccc(N2CCCCC2)nc1NCCc1ccccn1 [Compound 45, {6-piperidyl-2-[(2-(2-pyridyl)ethyl)amino](3-pyridyl)}-N-(3-pyridylmethyl)carboxamide] | 13200 nM
N[C@@H]1CCN(c2ccc(C(=O)NCc3cccnc3)c(NCCc3cccc(F)c3)n2)C1 [Compound 46, (6-((3R)-3-aminopyrrolidinyl)-2-{[2-(3-fluorophenyl)ethyl]amino}(3-pyridyl))-N-(3-pyridylmethyl)carboxamide] | 35500 nM
O=C(NCc1cccnc1)c1ccc(N2CC=CCC2)nc1NCCc1cccc(F)c1 [Compound 47, (2-{[2-(3-fluorophenyl)ethyl]amino}-6-(1,2,5,6-tetrahydropyridyl)(3-pyridyl))-N-(3-pyridylmethyl)carboxamide] | 687 nM
O=C(NCc1cccnc1)c1cc(Cl)c(N2CCCC2)nc1NCCc1cccc(F)c1 [Compound 48, (5-chloro-2-{[2-(3-fluorophenyl)ethyl]amino}-6-pyrrolidinyl(3-pyridyl))-N-(3-pyridylmethyl)carboxamide] | 234 nM
N#Cc1cc(C(=O)NCc2cccnc2)c(NCCc2cccc(F)c2)nc1N1CCCC1 [Compound 49, (5-cyano-2-{[2-(3-fluorophenyl)ethyl]amino}-6-pyrrolidinyl(3-pyridyl))-N-(3-pyridylmethyl)carboxamide] | 165 nM
COC(=O)N1CCN=C1c1ccc(C(=O)NCc2cccnc2)c(NCCc2cccc(F)c2)n1 [Compound 50, methyl 2-(6-{[2-(3-fluorophenyl)ethyl]amino}-5-[N-(3-pyridylmethyl)carbamoyl]-2-pyridyl)-2-imidazolinecarboxylate] | 21200 nM
N#CN1CCN=C1c1ccc(C(=O)NCc2cccnc2)c(NCCc2cccc(F)c2)n1 [Compound 51, (6-(1-cyano(2-imidazolin-2-yl))-2-{[2-(3-fluorophenyl)ethyl]amino}(3-pyridyl))-N-(3-pyridylmethyl)carboxamide] | 435 nM
NCCCN1C(=O)CC[C@@H]1CNC(=O)c1cc(F)c(N2CCCC2)nc1NCCc1cccc(F)c1 [Compound 52, N-{[(2R)-1-(3-aminopropyl)-5-oxopyrrolidin-2-yl]methyl}(5-fluoro-2-{[2-(3-fluorophenyl)ethyl]amino}-6-pyrrolidinyl(3-pyridyl))carboxamide] | 119 nM
NCc1ncccc1CNC(=O)c1cc(F)c(N2CC[C@@H](F)C2)nc1NCCc1cccc(F)c1 [Compound 53, (6-((3R)-3-fluoropyrrolidinyl)-5-fluoro-2-{[2-(3-fluorophenyl)ethyl]amino}(3-pyridyl))-N-{[2-(aminomethyl)(3-pyridyl)]methyl}carboxamide] | 23 nM
CC(C)(C)OC(=O)NCc1ncccc1CNC(=O)c1cc(F)c(N2CC[C@@H](O)C2)nc1NCCc1cccc(F)c1 [Compound 54, (6-((3R)-3-hydroxypyrrolidinyl)-5-fluoro-2-{[2-(3-fluorophenyl)ethyl]amino}(3-pyridyl))-N-[(2-{[(tert-butoxy)carbonylamino]methyl}(3-pyridyl))methyl]carboxamide] | 6780 nM
NCc1ncccc1CNC(=O)c1cc(F)c(N2CC[C@@H](O)C2)nc1NCCc1cccc(F)c1 [Compound 55, (6-((3R)-3-hydroxypyrrolidinyl)-5-fluoro-2-{[2-(3-fluorophenyl)ethyl]amino}(3-pyridyl))-N-{[2-(aminomethyl)(3-pyridyl)]methyl}carboxamide] | 125 nM

— patent US7939534B2, “Certain chemical entities, compositions, and methods” (Cytokinetics, Inc., priority 2006, dated 2011)
